The values that follow come from patent publication US7531527B2, “2-Propylidene-19-nor-vitamin D compounds” (Wisconsin Alumni Research Foundation, priority 2003, dated 2009).

Experiment [1] relates to Male, weanling Sprague-Dawley rats. Description: Bone calcium mobilization (serum calcium). The class given is in vivo, rat. The conditions noted are these: four consecutive ip doses, FIG. 6. Here is the method: (§1) Male, weanling Sprague-Dawley rats were placed on Diet 11 (0.47% Ca) diet+AEK for one week followed by Diet 11 (0.02% Ca)+AEK for 3 weeks. The rats were then switched to a diet containing 0.47% Ca for one week followed by two weeks on a diet containing 0.02% Ca. Dose administration began during the last week on 0.02% calcium diet. Four consecutive ip doses were given approximately 24 hours apart. Twenty-four hours after the last dose, blood was collected from the severed neck and the concentration of serum calcium determined as a measure of bone calcium mobilization. The first 10 cm of the intestine was also collected for intestinal calcium transport analysis using the everted gut sac method.

Experiment [2] concerns the target T1, recombinantly produced rat receptor (1α,25-hydroxyvitamin D3 rat receptor) (Rattus norvegicus, UniProt P13053).
T1 construct: made in house
T1 sequence (P13053 1-423): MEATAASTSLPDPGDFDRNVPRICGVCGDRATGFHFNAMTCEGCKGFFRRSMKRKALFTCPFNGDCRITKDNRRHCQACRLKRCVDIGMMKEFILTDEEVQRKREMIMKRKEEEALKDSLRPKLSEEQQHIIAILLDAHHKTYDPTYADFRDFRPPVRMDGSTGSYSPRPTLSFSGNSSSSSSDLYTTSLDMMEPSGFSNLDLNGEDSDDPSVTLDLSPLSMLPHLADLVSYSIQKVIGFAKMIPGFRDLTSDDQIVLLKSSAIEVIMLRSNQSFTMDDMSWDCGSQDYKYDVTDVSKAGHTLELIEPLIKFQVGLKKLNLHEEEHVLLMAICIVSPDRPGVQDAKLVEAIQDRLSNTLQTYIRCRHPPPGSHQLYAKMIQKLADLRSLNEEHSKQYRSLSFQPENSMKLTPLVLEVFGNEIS
Description: Competitive VDR binding. To be noted: FIGS. 1 and 2. How it is done: Competitive binding of the analogs to the porcine intestinal receptor was carried out by the method described by Dame et al (Biochemistry 25, 4523-4534, 1986), except the recombinantly produced rat receptor was used as the receptor (see Vanhooke et al., Biochemistry, in press, 2004).

Experiment [3] concerns human leukemia cells (HL-60 cells). Description: HL-60 cell differentiation (NBT reduction). The class given is cell-based. To be noted: for potency in promoting the differentiation of leukemia cells: HL-60 cells, compared with 1α,25-dihydroxyvitamin D3 and 2MD, FIG. 3; for percent of HL-60 cells induced to differentiate: NBT assay, concentration 1×10^−7M. Here is the method:
The differentiation of HL-60 promyelocytic into monocytes was determined as described by Ostrem et al (J. Biol. Chem. 262, 14164-14171, 1987).
Differentiation activity was assessed by a standard differentiation assay, abbreviated as NBT reduction (nitroblue tetrazolium reduction). The assay was conducted according to known procedures, as given, for example, by DeLuca et al U.S. Pat. No. 4,717,721 and Ostrem et al, J. Biol. Chem. 262, 14164, 1987. For the assay, the differentiation activity of the test compounds is expressed in terms of the percent of HL-60 cells having differentiated to normal cells in response to a given concentration of test compound.

For experiment [4], the system named is 24-hydroxylase (24OHase) gene promoter. Description: Transcription activation, 24-hydroxylase promoter luciferase reporter in ROS 17/2.8 (bone) cells. The class given is cell-based. To be noted: ROS 17/2.8 cells, 16 hours after dosing, FIG. 4. Here is the method:
Transcriptional activity was measured in ROS 17/2.8 (bone) cells that were stably transfected with a 24-hydroxylase (24OHase) gene promoter upstream of a luciferase reporter gene (Arbour et al., 1998). Cells were given a range of doses. Sixteen hours after dosing the cells were harvested and luciferase activities were measured using a luminometer.
“RLU” in FIG. 4 refers to relative luciferase units.

Experiment [5] deals with Male, weanling Sprague-Dawley rats. The experiment can be described thus: Intestinal calcium transport (everted gut sac method). The class given is in vivo, rat. The conditions noted are these: four consecutive ip doses, FIG. 5. How it is done: as §1

“2-(3′-hydroxypropylidene)-19-nor-1α,25-(OH)2D3 [1AGR]”: in experiment [1], the “ability to mobilize calcium from bone” value is listed as “significant ability to mobilize calcium from bone” and the “bone calcium mobilization compared with 2MD” value is given as “less active in this regard than 2MD”. The “activity in binding to the 1α,25-hydroxyvitamin D3 rat receptor” value in experiment [2] is “very active”. Further, in experiment [3], the “potency in promoting the differentiation of leukemia cells” value is “as potent as 1α,25-dihydroxyvitamin D3 and 2MD”; the “percent of HL-60 cells induced to differentiate” value was “the same degree of differentiation”. In experiment [4], the “transcriptional activity in bone cells” value is “significant transcriptional activity”. In addition, in experiment [5], the “intestinal calcium transport activity” value is reported as “relatively high intestinal calcium transport activity” and the “intestinal calcium transport activity compared with 2MD” value is recorded as “more active than 2MD”.

On to “2-(3′-hydroxypropylidene)-19-nor-(20S)-1α,25-(OH)2D3 [1AGS]”, for which, in experiment [1], the “ability to mobilize calcium from bone” value was “significant ability to mobilize calcium from bone” and the “bone calcium mobilization compared with 2MD” value is given as “less active in this regard than 2MD”. The “activity in binding to the 1α,25-hydroxyvitamin D3 rat receptor” value in experiment [2] was “very active”. In experiment [3], the “potency in promoting the differentiation of leukemia cells” value is “as potent as 1α,25-dihydroxyvitamin D3 and 2MD”; the “percent of HL-60 cells induced to differentiate” value is given as “the same degree of differentiation”. The “transcriptional activity in bone cells” value in experiment [4] was “significant transcriptional activity”. In addition, in experiment [5], the “intestinal calcium transport activity” value was “relatively high intestinal calcium transport activity” and the “intestinal calcium transport activity compared with 2MD” value is listed as “more active than 2MD”.

As to “2-[(3′-methoxymethoxy)propylidene]-19-nor-1α,25-dihydroxyvitamin D3 [F-Wit]”, in experiment [1], the “ability to mobilize calcium from bone” value is “significant ability to mobilize calcium from bone” and the “bone calcium mobilization compared with 2MD” value is given as “less active in this regard than 2MD”. Besides, the “transcriptional activity in bone cells” value in experiment [4] is given as “significant transcriptional activity”. For the same substance, in experiment [5], the “intestinal calcium transport activity” value is “relatively high intestinal calcium transport activity” and the “intestinal calcium transport activity compared with 2MD” value is given as “more active than 2MD”.
